These results are taken from publication PMC9101373, “Design of DNA Intercalators Based on 4-Carboranyl-1,8-Naphthalimides: Investigation of Their DNA-Binding Ability and Anticancer Activity” (International Journal of Molecular Sciences, 2022).

The experiment deals with calf thymus DNA (ct-DNA). The experiment in a line: UV–vis absorption titration with ct-DNA, binding constant Kb. As to conditions: 10 µM compound, ct-DNA 1.25–15 µM. An excerpt:
The interaction of 1,8-naphthalimides bearing carborane clusters with ct-DNA was also studied by UV–vis absorption titration to better understand the mode of interaction and binding strength. For compounds interacting with DNA by intercalation, bathochromic and hypochromic effects are observed in the absorption spectra. The spectral changes observed in the electronic absorption of 6–11, 16–19, 36–43, and 54–61 in the absence and presence of ct-DNA are illustrated in Figures S271–S296 (ESI). Progressive addition of ct-DNA at the concentration of 1.25–15 µM to a fixed amount of modified naphthalic anhydride or naphthalimide (10 µM concentration) decreased absorbance for almost all the tested modified conjugates, except conjugates 14, 15, and 22–27 for which changes in absorbance were not observed. […] Hypochromicity (10–56%) was also observed for all conjugates, with the highest value for compound 40.
To compare the DNA-binding strength of the tested conjugates, we calculated the binding constant Kb, as described in the Materials and Methods section. […] For conjugates 14, 15, and 22–27, the Kb value could not be determined due to the lack of noticeable changes in the UV spectra.
The measurements were performed by adding aliquots of DMSO stock solution of the tested compounds to the buffer solution (pH 7.4, 20 mM, 50 mM NaCl, Tris-HCl buffer, DMSO content of the final solutions = 0.40–0.61%) to the final concentration of 10 µM. The tested compounds were incubated 5 min, with increasing concentrations ranging from 0 to 15 µM of ct-DNA at 37 °C, then the UV–vis absorption spectra, between 310 and 500 nm (310–550 nm for compounds 36–43 and 54–61), were recorded using a GBC Cintra10 UV–vis spectrometer (Dandenong, Australia) equipped with a GBC Thermocell Peltier Power Supply (Dandenong, Australia) using a 1 cm path length cell. The binding constant was calculated according to the following equation [53]: A0/A−A0=εG/εH−G−εG +εG/εH−G−εG ×1/Kb[DNA] where Kb is the binding constant, A0 and A are the absorbance of the free tested compound, and the apparent one, εG and εH−G are their coefficient, respectively, and [DNA] is the concentration of [DNA] in the base pair. The slope to intercept ratio of the plot between A0/A − A0 versus 1/[DNA] yielded the binding constant.

Turning to “N-[2-(Dimethylamino)ethyl]-4-[(6-(2-(1,7-dicarba-closo-dodecaborane-1-yl)-ethylamino)hexyl)amino]-1,8-naphthalimide [Compound 59]”, the bathochromic shift is 1–2 nm. For “N-[2-(Dimethylamino)ethyl]-4-[(2-(2-(1,7-dicarba-closo-dodecaborane-1-yl)-ethylamino)ethyl)amino]-1,8-naphthalimide [Compound 55]” the value was 1–2 nm.
